Data from US20140363425A1, “SYSTEMS AND METHODS FOR I[…] HAVING ACTIVATED PR[…]” (priority 2013, published 2014).

Legend:
PR [1] = assay type: cell-based, human; details: AB32 cells (PR expressing clone of MCF-10A), 10 nM, 45 minutes, false discovery rate 0.27%
Procedure: (§1) In one aspect, PR genomic interactions were mapped in T-47D breast cancer cells and in the AB32 cell line: a stable PR expressing clone of the MCF-10A immortalized normal breast cell line. Cells were treated with the progestin ORG2058 (10 nM, 45 minutes), followed by PR-chromatin immunoprecipitation (ChIP) and Illumina sequencing. Sequences were aligned to the human genome and genomic regions enriched in the alignments were identified using the Bowtie and ERANGE [38] software tools (false discovery rate 0.27%).
(§2) Cells were cultured to 80% confluency in 15 cm tissue culture dishes, then treated for 45 minutes with 10 nM ORG2058 or vehicle. Chromatin was subsequently cross-linked by the addition of formaldehyde to the culture medium to a final concentration of 1% and incubation for 10 minutes at 37° C. Media were immediately removed and the cells were washed with cold phosphate buffered saline and harvested by scraping. Cells were collected by centrifugation and pellets were lysed 10 minutes at 4° C. in SDS buffer (1% SDS; 10 mM EDTA; 50 mM Tris-HCl, pH 8). The lysates were sonicated at 4° C. with a Branson 450 sonicator, using seven one minute bursts at 40% amplitude and 60% duty, each separated by a rest of at least one minute. Lysates were centrifuged at 13,000×g at 4° C. for 15 minutes to remove debris. […]

T-47D cells = test: Whole genome gene expression microarray in T-47D cells; assay type: cell-based, human; details: 10 nM, 2, 6 and 24 h, self-organizing map clustering
Procedure: (§3) Total RNA was isolated using RNAqueous purification columns (Invitrogen). Total RNA (500 ng) was amplified and biotin labelled using Illumina TotalPrep reagents (Invitrogen). The amplified samples (750 ng) were hybridized to human whole genome HT-12 gene expression bead arrays using the recommended Illumina reagents and following the manufacturer's protocol. Raw data were analysed using Genome Studio software (Illumina). After background subtraction data and cubic spline normalization, differential expression p values were determined using the Illumina custom model of Genome Studio. Data were further analysed using Microsoft Excel and SPSS statistical software. Hierarchical clustering and self organizing map clustering were performed using GenePattern.
(A and B) Overlap between PR binding regions and progestin regulated genes in (A) T-47D and (B) AB32 cells. (C and D) PR binding regions within 10 kb or in the 5′-UTR of genes regulated at 2, 6 and 24 h in (C) T-47D and (D) AB32 cells. (E) Genes with patterns of progestin regulation in T-47D cells that grouped together were identified by SOM cluster analysis using Gene Pattern. […]
In reference to FIG. 3B, T-47D and AB32 cells were treated with 10 nM ORG2058 (ORG) or vehicle for 2, 6 and 24 h. Transcript expression was measured by whole genome microarray. […]

AB32 cells = test: Whole genome gene expression microarray in AB32 cells; assay type: cell-based, human; details: 10 nM, 2, 6 and 24 h
Procedure: as §3
In reference to FIG. 3B, T-47D and AB32 cells were treated with 10 nM ORG2058 (ORG) or vehicle for 2, 6 and 24 h. Transcript expression was measured by whole genome microarray. Genes that were differentially expressed in ORG2058 treated samples relative to the untreated control at one or more time point in T-47D or AB32 cells were compared by unsupervised hierarchical cluster analysis. Red—increased expression, green—decreased expression relative to vehicle treated control.
In reference to FIG. 10, progestin regulated transcripts were identified in AB32 cells at 2, 6 and 24 h treatment with 10 nM ORG2058 by gene expression profiling. […]

PR [2] = target: T1, PR (Homo sapiens, UniProt P06401); assay type: cell-based; design: endogenous in cells; host or cells: T-47D; details: T-47D breast cancer cells, 10 nM, 45 minutes, false discovery rate 0.27%
T1 sequence (P06401 1-933): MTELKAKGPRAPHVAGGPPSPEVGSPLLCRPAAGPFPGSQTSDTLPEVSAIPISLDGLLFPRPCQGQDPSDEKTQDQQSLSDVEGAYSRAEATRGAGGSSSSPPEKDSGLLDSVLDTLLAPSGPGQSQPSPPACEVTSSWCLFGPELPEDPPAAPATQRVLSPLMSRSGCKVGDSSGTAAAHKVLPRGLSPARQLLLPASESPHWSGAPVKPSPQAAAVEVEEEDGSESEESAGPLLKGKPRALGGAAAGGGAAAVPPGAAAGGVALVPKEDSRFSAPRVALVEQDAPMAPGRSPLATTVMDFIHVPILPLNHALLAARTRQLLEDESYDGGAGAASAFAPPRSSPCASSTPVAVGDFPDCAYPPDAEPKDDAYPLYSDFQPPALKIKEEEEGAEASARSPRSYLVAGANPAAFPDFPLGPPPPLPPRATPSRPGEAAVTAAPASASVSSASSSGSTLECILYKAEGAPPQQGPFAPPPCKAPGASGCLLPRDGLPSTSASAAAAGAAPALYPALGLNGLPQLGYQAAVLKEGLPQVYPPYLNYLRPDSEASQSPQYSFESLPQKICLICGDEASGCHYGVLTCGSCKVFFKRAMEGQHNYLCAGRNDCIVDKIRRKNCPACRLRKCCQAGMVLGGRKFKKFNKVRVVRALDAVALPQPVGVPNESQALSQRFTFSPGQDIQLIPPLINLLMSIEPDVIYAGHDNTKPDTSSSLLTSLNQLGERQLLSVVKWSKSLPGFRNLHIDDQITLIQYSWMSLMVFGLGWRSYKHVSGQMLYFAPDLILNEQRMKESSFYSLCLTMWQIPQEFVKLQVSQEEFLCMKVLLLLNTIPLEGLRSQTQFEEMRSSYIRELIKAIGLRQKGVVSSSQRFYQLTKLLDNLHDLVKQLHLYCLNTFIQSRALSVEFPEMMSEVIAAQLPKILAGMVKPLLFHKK
Procedure: as §1, §2

PR [3] = target: T1, PR; details: cited from earlier work

Row | Structure (SMILES) | PR binding regions detected (PR [1]) | cluster of transcripts decreased at all time points, beginning to return toward basal levels at 24 h (T-47D cells) | direction of transcript regulation (AB32 cells) | peaks of PR binding identified (PR [2]) | dissociation from PR compared with ORG2058 (PR [3])
1 | CC[C@@H]1C[C@H]2[C@@H]3CCC4=CC(=O)CC[C@@H]4[C@H]3CC[C@]2(C)[C@H]1C(=O)CO [ORG2058, (8R,9S,10R,13S,14S,16R,17S)-16-ethyl-17-(2-hydroxyacetyl)-13-methyl-2,6,7,8,9,10,11,12,14,15,16,17-dodecahydro-1H-cyclopenta[a]phenanthren-3-one] | 8117 | 26 | more transcripts were decreased than increased | 6312 | –
2 | CC(=O)[C@H]1CC[C@H]2[C@@H]3CCC4=CC(=O)CC[C@]4(C)[C@H]3CC[C@]12C [progesterone] | – | – | – | – | dissociates from PR more rapidly
